Reference: article PMC9166630, “SAR Probing of KX2-391 Provided Analogues With Juxtaposed Activity Profile Against Major Oncogenic Kinases” (Frontiers in Oncology, 2022)
Read-outs that look alike come from different tables or passages of the source.

Assays:
NB4 leukemia cell line = experiment: CellTiter-Blue cell viability assay, NB4; assay type: cell-based, human; conditions: Homo sapiens
Description: (§1) HL60, K562, MV4-11 and NB4 were purchased from CLS Cell Line Service GmbH (Eppelheim, Germany). All cell lines were cultured in RPMI-1640 medium supplemented with 10% fetal bovine serum (FBS) (Thermo Fisher Scientific) and 0.1% ciprofloxacin (2.5mg/ml; Cipla Limited; Mumbai, India), and were maintained at 37°C in the presence of 21% O2 and 5% CO2.
(§2) Cell viability was determined using the CellTiter®-Blue Cell Viability Assay kit (Promega, Madison, WI, USA). Approximately 10^4 cells were counted and plated in a 96-well plate in the presence of test compounds ranging from 0.01 to 10 or 20 µM in triplicate and were incubated for 48 h at 37°C in a humidified incubator. After the incubation period was complete, 20 µL of CellTiter®-Blue Cell Viability Assay reagent was added to each well and incubated for additional 2 h for the development of florescence. Florescence was measured at Ex/Em 540/590 on SpectraMax® i3 Multi-Mode microplate reader (Molecular Devices, LLC; San Jose, CA, USA) and plotted against drug concentration to determine the IC50 of the test compounds. The IC50 was obtained by non-linear regression model using GraphPad Prism 6.07 (GraphPad Software, Inc, USA).

HL60 leukemia cell line = experiment: CellTiter-Blue cell viability assay, HL60; assay type: cell-based; conditions: Homo sapiens, HL-60
Description: as §1, §2

[1] = system: MV4-11 leukemia cell line; experiment: CellTiter-Blue cell viability assay, MV4-11; assay type: cell-based; conditions: Homo sapiens
Description: as §1, §2

K562 leukemia cell line = experiment: CellTiter-Blue cell viability assay, K562; assay type: cell-based; conditions: Homo sapiens
Description: as §1, §2

[2] = 48 h, CellTiter-Blue, 48 h, maximum tested concentration 20 µM, read-out: IC50 ± SEM, NB4
[3] = CellTiter-Blue, 48 h, maximum tested concentration 20 µM, read-out: IC50 ± SEM, HL60
[4] = CellTiter-Blue, 48 h, maximum tested concentration 20 µM, read-out: IC50 ± SEM, MV4-11
[5] = CellTiter-Blue, 48 h, maximum tested concentration 20 µM, read-out: IC50 ± SEM, K562

## O=C(Cc1ccc(NC(=O)c2ccc(OCCN3CCOCC3)c(Cl)c2)cc1)NCc1ccccc1 [Compound 4l, N-(4-(2-(benzylamino)-2-oxoethyl)phenyl)-3-chloro-4-(2-morpholinoethoxy) benzamide]
other
  melting point: 147 °C
NB4 leukemia cell line; [2]
  IC50: 8.77 ± 1.75 µM
HL60 leukemia cell line; [3]
  IC50: > 20 µM
[1]; [4]
  IC50: 18.85 ± 0.12 µM
K562 leukemia cell line; [5]
  IC50: 12.96 ± 0.08 µM

## O=C(Cc1ccc(NC(=O)c2cccc(Cl)c2)cc1)NCc1ccco1 [Compound 4r, 3-Chloro-N-(4-(2-((furan-2-ylmethyl)amino)-2-oxoethyl)phenyl)benzamide]
other
  melting point: 206 °C
HL60 leukemia cell line; [3]
  IC50: > 20 µM
[1]; [4]
  IC50: > 20 µM
K562 leukemia cell line; [5]
  IC50: > 20 µM

## O=C(Cc1ccc(-c2ccc(OCCN3CCOCC3)cc2)cn1)NCc1ccccc1 [KX2-391, Tirbanibulin]
NB4 leukemia cell line; positive reference for validation, read-out: IC50, NB4
  IC50: 0.0033 µM
HL60 leukemia cell line; positive reference for validation, read-out: IC50, HL60
  IC50: 0.0121 µM
[1]; positive reference for validation, read-out: IC50, MV411
  IC50: 0.00419 µM
K562 leukemia cell line; positive reference for validation, read-out: IC50, K562
  IC50: 0.0145 µM

## O=C(Cc1ccc(NC(=O)c2cccc(OCCN3CCOCC3)c2)cc1)NCc1ccccc1 [Compound 4i, N-(4-(2-(benzylamino)-2-oxoethyl)phenyl)-3-(2-morpholinoethoxy)benzamide]
NB4 leukemia cell line; [2]
  IC50: > 20 µM
HL60 leukemia cell line; [3]
  IC50: > 20 µM
[1]; [4]
  IC50: 16.3 ± 4.43 µM
K562 leukemia cell line; [5]
  IC50: 17.4 ± 2.63 µM

## O=C(Cc1ccc(NC(=O)c2cncc(Cl)c2)cc1)NCc1ccccc1 [Compound 4o, N-(4-(2-(benzylamino)-2-oxoethyl)phenyl)-5-chloronicotinamide]
other
  melting point: 231 °C
NB4 leukemia cell line; [2]
  IC50: 5.89 ± 1.11 µM
HL60 leukemia cell line; [3]
  IC50: > 20 µM
[1]; [4]
  IC50: > 20 µM
K562 leukemia cell line; [5]
  IC50: > 20 µM

## COc1ccc(C(=O)Nc2ccc(CC(=O)NCc3ccccc3)cc2)cc1OC [Compound 4k, N-(4-(2-(benzylamino)-2-oxoethyl)phenyl)-3,4-dimethoxybenzamide]
other
  melting point: 215 °C
NB4 leukemia cell line; [2]
  IC50: 9.88 ± 2.8 µM
HL60 leukemia cell line; [3]
  IC50: > 20 µM
[1]; [4]
  IC50: 7.95 ± 0.31 µM
K562 leukemia cell line; [5]
  IC50: > 20 µM

## COc1ccc(C(=O)Nc2ccc(CC(=O)NCc3ccccc3)cc2)cc1Cl [Compound 4j, N-(4-(2-(benzylamino)-2-oxoethyl)phenyl)-3-chloro-4-methoxybenzamide]
other
  melting point: 186 °C
NB4 leukemia cell line; [2]
  IC50: 5.33 ± 1.43 µM
HL60 leukemia cell line; [3]
  IC50: > 20 µM
[1]; [4]
  IC50: 20 ± 0.16 µM
K562 leukemia cell line; [5]
  IC50: 13.04 ± 0.04 µM

## O=C(Cc1ccc(NC(=O)c2cccc(Cl)c2)cc1)NCCc1ccccc1 [Compound 4q, 3-Chloro-N-(4-(2-oxo-2-(phenethylamino)ethyl)phenyl)benzamide]
other
  melting point: 160 °C
HL60 leukemia cell line; [3]
  IC50: > 20 µM
[1]; [4]
  IC50: > 20 µM
K562 leukemia cell line; [5]
  IC50: > 20 µM

## COc1cccc(C(=O)Nc2ccc(CC(=O)NCc3ccccc3)cc2)c1 [Compound 4h, N-(4-(2-(benzylamino)-2-oxoethyl)phenyl)-3-methoxybenzamide]
NB4 leukemia cell line; [2]
  IC50: 1.96 ± 1.33 µM
HL60 leukemia cell line; [3]
  IC50: 3.27 ± 0.15 µM
[1]; [4]
  IC50: 2.4 ± 0.49 µM
K562 leukemia cell line; [5]
  IC50: 4.23 ± 2.44 µM

## O=C(Cc1ccc(NC(=O)c2cccc(Cl)c2)cn1)NCc1ccccc1 [Compound 4s, N-(6-(2-(benzylamino)-2-oxoethyl)pyridin-3-yl)-3-chlorobenzamide]
NB4 leukemia cell line; [2]
  IC50: 1.74 ± 0.16 µM
HL60 leukemia cell line; [3]
  IC50: 6.24 ± 3.3 µM
[1]; [4]
  IC50: 2.87 ± 0.3 µM
K562 leukemia cell line; [5]
  IC50: 4 ± 1.5 µM

## O=C(Cc1ccc(NC(=O)c2ccc(Cl)o2)cc1)NCc1ccccc1 [Compound 4p, N-(4-(2-(benzylamino)-2-oxoethyl)phenyl)-5-chlorofuran-2-carboxamide]
other
  melting point: 217 °C
NB4 leukemia cell line; [2]
  IC50: > 20 µM
HL60 leukemia cell line; [3]
  IC50: > 20 µM
[1]; [4]
  IC50: > 20 µM
K562 leukemia cell line; [5]
  IC50: > 20 µM

## O=C(Cc1ccc(NC(=O)c2ccnc(Cl)c2)cc1)NCc1ccccc1 [Compound 4m, N-(4-(2-(benzylamino)-2-oxoethyl)phenyl)-2-chloroisonicotinamide]
NB4 leukemia cell line; [2]
  IC50: 3.46 ± 0.06 µM
HL60 leukemia cell line; [3]
  IC50: > 20 µM
[1]; [4]
  IC50: 6.33 ± 4.24 µM
K562 leukemia cell line; [5]
  IC50: 12.4 ± 1.39 µM
